EC50 data for 28 compounds are collected here from patent publication US20260159528A1, “HETEROCYCLIC COMPOUNDS AS TRIGGERING RECEPTOR EXPRESSED ON MYELOID CELLS 2 AGONISTS AND METHODS OF USE” (Vigil Neuroscience, Inc., priority 2021, published 2026).

In general, EC50 refers to the concentration giving half of the maximal effect. Low values mean greater potency, high ones weaker potency.

Where only a bound is given, the exact number is not on record here.

The target in the first assay is T1, human TREM2 (Homo sapiens, UniProt Q9NZC2).
T1 construct: expressed in transfected cells; host or cells: HEK293T
T1 sequence (Q9NZC2 19-230): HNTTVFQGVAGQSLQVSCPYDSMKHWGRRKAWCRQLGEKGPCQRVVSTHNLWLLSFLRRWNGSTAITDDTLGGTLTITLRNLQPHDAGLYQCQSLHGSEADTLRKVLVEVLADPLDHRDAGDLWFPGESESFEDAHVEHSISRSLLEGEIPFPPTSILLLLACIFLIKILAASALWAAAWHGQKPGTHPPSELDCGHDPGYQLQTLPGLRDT
T1 sequence (O43914 22-113 partner): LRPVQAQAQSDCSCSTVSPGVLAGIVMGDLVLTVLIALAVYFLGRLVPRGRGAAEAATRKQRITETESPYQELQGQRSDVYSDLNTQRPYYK
As to the kind of experiment: TREM2 agonist potency by cellular Syk phosphorylation (AlphaLisa) in HEK293T-hTREM2 cells. As to conditions: Table D-2; HEK293 cells expressing human TREM2 and DAP12; pSyk AlphaLisa. Format: cell-based. As for the experimental part: In vitro Measurement of Triggering Receptor Expressed on Myeloid Cells 2 activity using cellular phosphorylation of Spleen Tyrosine Kinase (“Syk”) Assays
Measurement of TREM2 agonist potency was done using a HEK cell line expressing human TREM2 and DAP12 (HEK293T-hTREM2 cells). Binding of small molecules to, and activation of, TREM2 increases the phosphorylation of Syk. The resultant levels of Syk phosphorylation are measured using a commercial AlphaLisa reagent kit. To perform the assay, HEK-hTREM2 cells were plated at 14,000 cells per well in a 384 well plate, in 25 µL of complete growth media and incubated at 37° C., 5% CO2 for 20-24 hours.
Prior to the assay, test compounds were diluted in the 384 well plates in assay buffer and allowed to equilibrate for 30 minutes. Growth media was removed from cell plates by inversion on blotting paper, and 25 μL of test articles in assay buffer was added to cells. Cells were incubated for 45 minutes at room temperature. After 45 minutes, assay buffer was removed and 10 μL of lysis buffer was added. Plates were shaken for 20 minutes at 350 RPM at room temperature. After complete lysis, AlphaLisa reagents were added to the lysate, and fluorescence intensity was measured using a Perkin Elmer Envision plate reader. Intensities were used to generate a standard curve, and % activation was calculated. Curve fitting was performed using Prism v9 software, log(agonist) vs response—variable slope (four parameters), and EC50s were calculated from the curve fit.
The results presented in Table D have been generated with the in vitro assay described above. This assay may be used to test any of the compounds described herein to assess and characterize a compound's ability to act as an agonist of TREM2.
Regarding `C[C@@H]1CN(c2nc(-c3ccc(F)cc3F)c3c(n2)nc(N(C)C)n3C)C[C@H](c2cnn(C3CC3)c2)O1` [Compound I-144], the EC50 is at most 50 nM.

Compound `Cn1c(N2CCC2)nc2nc([C@H]3CCO[C@@H](c4cnn(C5CC5)c4)C3)nc(-c3ccc(F)cc3F)c21` [Compound I-293, 8-(azetidin-1-yl)-2-((2R,4S)-2-(1-cyclopropyl-1H-pyrazol-4-yl)tetrahydro-2H-pyran-4-yl)-6-(2,4-difluorophenyl)-7-methyl-7H-purine] showed an EC50 of 50 to 500 nM.

Turning to `CN(C)c1nc2nc([C@@H]3CCO[C@@H](c4cnn(C5CC5)c4)C3)nc(-c3ccc(C(F)(F)F)cc3F)c2s1` (single isomer, unassigned) [Compound I-135], the EC50 was 500 to 3000 nM.

For the compound `C[C@@H]1CN(c2nc(-c3ccc(C(F)(F)F)cc3F)c3sc(N(C)C)nc3n2)C[C@H](c2cnn(C3CC3)c2)O1` [Compound I-258, 5-[(2S,6R)-2-(1-cyclopropylpyrazol-4-yl)-6-methyl-morpholin-4-yl]-7-[2-fluoro-4-(trifluoromethyl)phenyl]-N,N-dimethyl-thiazolo[4,5-d]pyrimidin-2-amine], the EC50 was at most 50 nM.

On to `Cc1nc2nc([C@@H]3CCO[C@@H](c4cnn(C5CC5)c4)C3)nc(-c3ccc(F)cc3F)c2s1` [Compound I-14, 5-[(2R,4R)-2-(1-cyclopropylpyrazol-4-yl)tetrahydropyran-4-yl]-7-(2,4-difluorophenyl)-2-methyl-thiazolo[4,5-d]pyrimidine], for which the EC50 is 500 to 3000 nM.

In turn, `CN(C)c1nc2nc([C@@H]3CCO[C@@H](c4cnn(C5CC5)c4)C3)nc(C3CCCCC3)c2s1` (single isomer, unassigned) [Compound I-205] showed an EC50 of 500 to 3000 nM.

`Cc1cc(C2CN(c3nc(-c4ccc(C(F)(F)F)cc4F)c4sc(N(C)C)nc4n3)CCC2(F)F)ccn1` (racemic) [Compound I-188, 5-(4,4-difluoro-3-(2-methylpyridin-4-yl)piperidin-1-yl)-7-(2-fluoro-4-(trifluoromethyl)phenyl)-N,N-dimethylthiazolo[4,5-d]pyrimidin-2-amine] gave an EC50 of 50 to 500 nM.

For `Fc1cc(C(F)(F)F)ccc1-c1nc([C@H]2CCO[C@@H](c3cnn(C4CC4)c3)C2)nc2nc(C3CC3)sc12` (single isomer, unassigned) [Compound I-279], the EC50 is at most 50 nM.

In turn, `C[C@@H]1CN(c2nc(-c3ccc(Cl)cc3F)c3sc(N(C)CCO)nc3n2)C[C@H](c2cnn(C3CC3)c2)O1` (single isomer, unassigned) [Compound I-104] displayed an EC50 of 50 to 500 nM.

For `CN(C)c1nc2nc([C@H]3CCO[C@@H](c4cnn(C5CC5)c4)C3)nc(-c3ccc(C(F)(F)F)cc3F)c2s1` (single isomer, unassigned) [Compound I-134], the EC50 is 50 to 500 nM.

`CCn1/c(=N\C)sc2c(-c3ccc(Cl)cc3F)nc(N3C[C@@H](C)O[C@@H](c4cnn(C5CC5)c4)C3)nc21` [Compound I-154, (E)-7-(4-chloro-2-fluoro-phenyl)-3-ethyl-N-methyl-5-[(2S,6R)-2-(1-cyclopropylpyrazol-4-yl)-6-methyl-morpholin-4-yl]thiazolo[4,5-d]pyrimidin-2-imine]: the EC50 lay in the range of 500 to 3000 nM.

As for `CN(C)c1nc2nc(C3CCO[C@@H](c4cnn(C5CC5)c4)C3)nc(Oc3ccccc3)c2s1` (stereo partly drawn) [Compound I-210, 5-[(2R)-2-(1-cyclopropylpyrazol-4-yl)tetrahydropyran-4-yl]-N,N-dimethyl-7-phenoxy-thiazolo[4,5-d]pyrimidin-2-amine], the EC50 was in the range of 500 to 3000 nM.

In turn, `C[C@@H]1CN(c2nc(-c3ccc(Cl)cc3F)c3sc(N(C)C)nc3n2)C[C@H](c2cnn(C3CC3)c2)O1` (racemic) [Compound I-22, 7-(4-chloro-2-fluoro-phenyl)-N,N-dimethyl-5-[rac-(2S,6R)-2-(1-cyclopropylpyrazol-4-yl)-6-methyl-morpholin-4-yl]thiazolo[4,5-d]pyrimidin-2-amine] displayed an EC50 of 50 to 500 nM.

Compound `CN(C)c1nc2nc([C@H]3CCO[C@@H](c4cnn(C5CC5)c4)C3)nc(-c3ccc(F)cc3F)c2n1C` [Compound I-303, 2-((2R,4S)-2-(1-cyclopropyl-1H-pyrazol-4-yl)tetrahydro-2H-pyran-4-yl)-6-(2,4-difluorophenyl)-N,N,7-trimethyl-7H-purin-8-amine] registered an EC50 of 50 to 500 nM.

On to `Fc1cc(C(F)(F)F)ccc1-c1nc([C@H]2CCO[C@@H](c3cnn(C4CC4)c3)C2)nc2nc(N3CCC3)sc12` (single isomer, unassigned) [Compound I-249], for which the EC50 was at most 50 nM.

The compound `CN(C)c1nc2nc(N3CCC(F)(F)C(c4cnn(C5CC5)c4)C3)nc(-c3ccc(F)cc3F)c2s1` (stereo not shown) [Compound I-245, 5-(3-(1-cyclopropyl-1H-pyrazol-4-yl)-4,4-difluoropiperidin-1-yl)-7-(2,4-difluorophenyl)-N,N-dimethylthiazolo[4,5-d]pyrimidin-2-amine] registered an EC50 of at most 50 nM.

In turn, `Cc1cc([C@H]2CN(c3nc(-c4ccc(C(F)(F)F)cc4F)c4sc(N(C)C)nc4n3)C[C@@H](C)O2)ccn1` [Compound I-263, 7-[2-fluoro-4-(trifluoromethyl)phenyl]-N,N-dimethyl-5-[(2R,6S)-2-methyl-6-(2-methyl-4-pyridyl)morpholin-4-yl]thiazolo[4,5-d]pyrimidin-2-amine] gave a concentration giving a half-maximal response (EC50) of 50 to 500 nM.

With `CS(=O)(=O)c1nc2nc([C@H]3CCO[C@@H](c4cnn(C5CC5)c4)C3)nc(-c3ccc(C(F)(F)F)cc3N3CCC3)c2s1` [Compound I-253, 7-[2-(azetidin-1-yl)-4-(trifluoromethyl)phenyl]-5-[(2R,4S)-2-(1-cyclopropylpyrazol-4-yl)tetrahydropyran-4-yl]-2-methylsulfonyl-thiazolo[4,5-d]pyrimidine], the EC50 lay in the range of 50 to 500 nM.

In turn, `Cc1cc([C@H]2CN(c3nc(-c4ccc(C(F)(F)F)cc4F)c4sc(N(C)C)nc4n3)CCC2(F)F)ccn1` (single isomer, unassigned) [Compound I-202] yielded an EC50 of 50 to 500 nM.

Consider `CO[C@@H]1CCN(c2nc3nc([C@H]4CCO[C@@H](c5cnn(C6CC6)c5)C4)nc(-c4ccc(C(F)(F)F)cc4F)c3s2)C1` [Compound I-164, 5-((2R,4S)-2-(1-cyclopropyl-1H-pyrazol-4-yl)tetrahydro-2H-pyran-4-yl)-7-(2-fluoro-4-(trifluoromethyl)phenyl)-2-((R)-3-methoxypyrrolidin-1-yl)thiazolo[4,5-d]pyrimidine], for which the concentration giving a half-maximal response (EC50) is 50 to 500 nM.

`CN(C)c1nc2nc([C@H]3CCO[C@@H](c4cnn(C5CC5)c4)C3)nc(-c3ccc(F)cc3F)c2s1` (single isomer, unassigned) [Compound I-89] returned a concentration giving a half-maximal response (EC50) of 50 to 500 nM.

Consider `C[C@@H]1CN(c2nc(-c3ccc(F)cc3F)c3c(ncn3C)n2)C[C@H](c2cnn(C3CC3)c2)O1` [Compound I-124, (2S,6R)-2-(1-cyclopropyl-1H-pyrazol-4-yl)-4-(6-(2,4-difluorophenyl)-7-methyl-7H-purin-2-yl)-6-methylmorpholine], for which the 50% effective concentration (EC50) lay in the range of 500 to 3000 nM.

As to `C[C@@H]1CN(c2nc(-c3ccc(F)cc3F)c3sc(N(C)C)nc3n2)C[C@H](c2cnn(C3CC3)c2)O1` (single isomer, unassigned) [Compound I-84], the EC50 is at most 50 nM.

As for `Fc1cc(C(F)(F)F)ccc1-c1nc([C@@H]2CCO[C@@H](c3cnn(C4CC4)c3)C2)nc2nc(C3CC3)sc12` (single isomer, unassigned) [Compound I-278], the EC50 was 500 to 3000 nM.

The compound `C[C@@H]1CN(c2nc(-c3cc(F)c(F)cc3F)c3sc(N(C)C)nc3n2)C[C@H](c2cnn(C3CC3)c2)O1` [Compound I-273, 5-[(2S,6R)-2-(1-cyclopropylpyrazol-4-yl)-6-methyl-morpholin-4-yl]-N,N-dimethyl-7-(2,4,5-trifluorophenyl)thiazolo[4,5-d]pyrimidin-2-amine] gave an EC50 of at most 50 nM.

Consider `C[C@@H]1CN(c2nc(-c3ccc(F)cc3F)c3c(n2)nc(N2CCC2)n3C)C[C@H](c2cnn(C3CC3)c2)O1` [Compound I-191, (2S,6R)-4-(8-(azetidin-1-yl)-6-(2,4-difluorophenyl)-7-methyl-7H-purin-2-yl)-2-(1-cyclopropyl-1H-pyrazol-4-yl)-6-methylmorpholine], for which the EC50 fell in the range of 50 to 500 nM.

Still in this assay, the particulars now being: Table D; HEK293 cells expressing human TREM2 and DAP12; pSyk AlphaLisa.
Compound `Cc1cn2c(-c3ccc(Cl)cc3F)cc(N3CCOC(c4cnn(C5CC5)c4)C3)nc2n1` (stereo not shown) [Compound I-26, 4-[5-(4-chloro-2-fluoro-phenyl)-2-methyl-imidazo[1,2-a]pyrimidin-7-yl]-2-(1-cyclopropylpyrazol-4-yl)morpholine] had an EC50 of 3000 to 100000 nM.

As for `Cc1nc2nc([C@H]3CCO[C@@H](c4cnn(C5CC5)c4)C3)nc(-c3ccc(F)cc3F)c2o1` [Compound 5, 5-((2R,4S)-2-(1-cyclopropyl-1H-pyrazol-4-yl)tetrahydro-2H-pyran-4-yl)-7-(2,4-difluorophenyl)-2-methyloxazolo[4,5-d]pyrimidine], the EC50 was in the range of 500 to 3000 nM.
